Source: patent publication US20240208992A1, “MACROCYCLES AS CFTR MODULATORS” (Idorsia Pharmaceuticals Ltd, priority 2021, published 2024)

Molecular target: human F508del-CFTR (Homo sapiens, UniProt P13569, DEL508-508)
Assay: F508del-CFTR cell surface expression (corrector activity), DiscoveRx ß-galactosidase complementation chemiluminescence assay in recombinant U2OS cell line;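 also: U2OS cells co-expressing ProLink-tagged F508del-CFTR and a membrane-anchored enzyme acceptor, where more surface CFTR restores β-galactosidase activity measured by chemiluminescence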
[1] = EC50, F508del-CFTR cell surface expression, U2OS cell line, 16h compound incubation, geomean values
[2] = U2OS, in relation to the Emax of the corrector lumacaftor (=100%), U2OS cell line, 16h compound incubation, arithmetic mean values
[3] = U2OS, in relation to Emax of corrector lumacaftor (=100%), arithmetic mean values
[4] = EC50, F508del-CFTR cell surface expression, U2OS cells, 16h compound incubation, geomean values
[5] = in relation to Emax of corrector lumacaftor (=100%), arithmetic mean values

Chain of human F508del-CFTR (P13569 with tags, fused parts or gaps DEL508-508): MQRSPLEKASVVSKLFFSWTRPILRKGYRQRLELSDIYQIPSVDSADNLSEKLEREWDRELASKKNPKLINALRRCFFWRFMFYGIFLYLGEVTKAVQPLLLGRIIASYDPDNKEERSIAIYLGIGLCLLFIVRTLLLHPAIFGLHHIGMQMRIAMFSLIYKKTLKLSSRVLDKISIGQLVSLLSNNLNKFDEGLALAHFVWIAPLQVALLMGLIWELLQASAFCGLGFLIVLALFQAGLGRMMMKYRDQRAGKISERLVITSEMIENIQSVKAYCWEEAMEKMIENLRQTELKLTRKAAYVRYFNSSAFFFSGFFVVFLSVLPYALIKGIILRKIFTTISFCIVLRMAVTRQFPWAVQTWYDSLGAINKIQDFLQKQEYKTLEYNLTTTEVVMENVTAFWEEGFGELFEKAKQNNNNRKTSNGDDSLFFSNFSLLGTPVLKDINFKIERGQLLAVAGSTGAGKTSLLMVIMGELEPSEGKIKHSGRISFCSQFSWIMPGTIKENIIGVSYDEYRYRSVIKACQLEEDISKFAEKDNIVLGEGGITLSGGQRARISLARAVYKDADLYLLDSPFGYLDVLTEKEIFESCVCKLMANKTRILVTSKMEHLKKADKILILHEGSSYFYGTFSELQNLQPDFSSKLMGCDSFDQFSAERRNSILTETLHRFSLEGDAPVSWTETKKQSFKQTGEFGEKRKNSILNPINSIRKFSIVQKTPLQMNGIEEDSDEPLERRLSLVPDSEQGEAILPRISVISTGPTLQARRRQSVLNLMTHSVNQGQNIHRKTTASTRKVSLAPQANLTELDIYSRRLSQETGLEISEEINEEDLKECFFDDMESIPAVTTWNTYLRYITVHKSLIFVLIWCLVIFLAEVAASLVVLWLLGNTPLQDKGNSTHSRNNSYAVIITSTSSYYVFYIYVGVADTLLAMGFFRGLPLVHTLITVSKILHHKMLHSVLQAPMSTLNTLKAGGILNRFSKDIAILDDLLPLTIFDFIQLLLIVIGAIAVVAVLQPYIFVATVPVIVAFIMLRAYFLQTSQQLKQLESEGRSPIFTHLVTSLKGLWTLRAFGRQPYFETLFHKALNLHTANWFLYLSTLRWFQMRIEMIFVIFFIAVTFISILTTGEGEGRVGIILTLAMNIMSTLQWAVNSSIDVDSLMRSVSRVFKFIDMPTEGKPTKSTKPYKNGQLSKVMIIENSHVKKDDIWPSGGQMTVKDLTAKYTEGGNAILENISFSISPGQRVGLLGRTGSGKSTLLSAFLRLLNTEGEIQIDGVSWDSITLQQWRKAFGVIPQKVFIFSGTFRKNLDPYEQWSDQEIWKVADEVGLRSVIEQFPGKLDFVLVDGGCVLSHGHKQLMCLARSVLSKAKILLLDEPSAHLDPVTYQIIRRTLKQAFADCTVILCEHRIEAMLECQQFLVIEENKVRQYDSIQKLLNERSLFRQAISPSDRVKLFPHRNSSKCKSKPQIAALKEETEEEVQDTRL

Emax [3] [%]	EC50 [4] [nM]	SMILES	also measured
–	–	COc1cccc(CCNC(=O)[C@@H]2CC(=O)N(C)[C@@H](CC3CCC3)C(=O)N(CCC3CCCCC3)CC(=O)N[C@H](Cc3ccccc3)COc3ccc4ccccc4c3C(=O)N2)c1 (racemic) [Example 302, (3RS,7S,13R)-13-benzyl-7-(cyclobutylmethyl)-9-(2-cyclohexylethyl)-N-(3-methoxyphenethyl)-6-methyl-1,5,8,11-tetraoxo-1,2,3,4,5,6,7,8,9,10,11,12,13,14-tetradecahydronaphtho[1,2-p][1]oxa[4,7,10,14]tetraazacycloheptadecine-3-carboxamide]	EC50 [1]: 106 nM; Emax [2]: 193%
–	–	COc1cccc(CCNC(=O)[C@@H]2CC(=O)N(C)[C@@H](CC(C)C)C(=O)N(CCC3CCCCC3)CC(=O)N[C@H](Cc3ccccc3)COc3ccc4ccccc4c3C(=O)N2)c1 (racemic) [Example 303, (3RS,7S,13R)-13-benzyl-9-(2-cyclohexylethyl)-7-isobutyl-N-(3-methoxyphenethyl)-6-methyl-1,5,8,11-tetraoxo-1,2,3,4,5,6,7,8,9,10,11,12,13,14-tetradecahydronaphtho[1,2-p][1]oxa[4,7,10,14]tetraazacycloheptadecine-3-carboxamide]	EC50 [1]: 180 nM; Emax [2]: 275%
–	–	COc1cccc2c1C(=O)N[C@H](C(=O)NCCc1ccc3c(c1)OCO3)CC(=O)N(C)[C@@H](CC(C)C)C(=O)N(CC[C@H]1CCCCO1)CC(=O)N[C@H](Cc1ccccc1)CO2 (racemic) [Example 304, (3R,9S,13S)-N-(2-(benzo[d][1,3]dioxol-5-yl)ethyl)-3-benzyl-9-isobutyl-16-methoxy-10-methyl-5,8,11,15-tetraoxo-7-(2-((RS)-tetrahydro-2H-pyran-2-yl)ethyl)-2,3,4,5,6,7,8,9,10,11,12,13,14,15-tetradecahydrobenzo[p][1]oxa[4,7,10,14]tetraazacycloheptadecine-13-carboxamide]	EC50 [1]: 581 nM; Emax [2]: 193%
–	–	COc1cccc(CCNC(=O)[C@@H]2CC(=O)N(C)[C@@H](CC(C)C)C(=O)N(CC[C@H]3CCCCO3)CC(=O)N[C@H](Cc3ccccc3)COc3cccc(OC)c3C(=O)N2)c1 (racemic) [Example 310]	EC50 [1]: 788 nM; Emax [2]: 202%
24	881	Cc1cc(CCNC(=O)[C@@H]2CC(=O)N(C)[C@@H](CC(C)C)C(=O)N(C)[C@@H](CO)C(=O)N[C@H](Cc3ccccc3)COc3ccc4ccccc4c3C(=O)N2)on1 (racemic) [Example 720, (3S,7S,10RS,13R)-13-benzyl-10-(hydroxymethyl)-7-isobutyl-6,9-dimethyl-N-(2-(3-methylisoxazol-5-yl)ethyl)-1,5,8,11-tetraoxo-1,2,3,4,5,6,7,8,9,10,11,12,13,14-tetradecahydronaphtho[1,2-p][1]oxa[4,7,10,14]tetraazacycloheptadecine-3-carboxamide]	–
232	235	Cc1nc2ccc3c(c2o1)C(=O)N[C@H](C(=O)NCCc1cccc([C@H](C)O)c1)CC(=O)N(C)[C@@H](CC(C)C)C(=O)N(CCC1CCCCC1)CC(=O)N[C@H](Cc1ccccc1)CO3 (racemic) [Example 728, (8R,14S,18S)-8-benzyl-12-(2-cyclohexylethyl)-N-(3-((RS)-1-hydroxyethyl)phenethyl)-14-isobutyl-2,15-dimethyl-10,13,16,20-tetraoxo-7,8,9,10,11,12,13,14,15,16,17,18,19,20-tetradecahydrooxazolo[4′,5′:5,6]benzo[1,2-p][1]oxa[4,7,10,14]tetraazacycloheptadecine-18-carboxamide]	–
–	421	COc1nccc2c1C(=O)NC(C(=O)NCCc1cc(C3CC3)no1)CC(=O)N(C)C(CC(C)C)C(=O)N(C)C(CC1CCC(F)(F)CC1)C(=O)NC(Cc1ccccc1)CO2 (single isomer, unassigned) [Example 661]	Emax [5]: 247%
–	124	COc1nccc2c1C(=O)NC(C(=O)NCCc1cc(C3CC3)no1)CC(=O)N(C)C(CC(C)C)C(=O)N(C)C(CC1CCC(F)(F)CC1)C(=O)NC(Cc1ccccc1)CO2 (single isomer, unassigned) [Example 662]	Emax [5]: 297%
230	856	COc1nccc2c1C(=O)N[C@H](C(=O)NCCc1cc(C3CC3)no1)CC(=O)N(C)[C@@H](CC(C)C)C(=O)N1CCC3(CC3)C[C@@H]1C(=O)N[C@H](Cc1ccccc1)CO2 (single isomer, unassigned) [Example 669, (7′S,11′S,17a′S,20′R)-20′-benzyl-N-(2-(3-cyclopropylisoxazol-5-yl)ethyl)-11′-isobutyl-4′-methoxy-10′-methyl-5′,9′,12′,18′-tetraoxo-5′,6′,7′,8′,9′,10′,11′,12′,14′,15′,17′,17a′,18′,19′,20′,21′-hexadecahydrospiro[cyclopropane-1,16′-dipyrido[2,1-f:3′,4′-p][1]oxa[4,7,10,14]tetraazacycloheptadecine]-7′-carboxamide]	–
179	235	COc1nccc2c1C(=O)N[C@H](C(=O)NCCc1cc(C3CC3)no1)CC(=O)N(C)[C@@H](CC(C)C)C(=O)N1CC[C@@H](c3ccccc3)C[C@H]1C(=O)N[C@H](Cc1ccccc1)CO2 (single isomer, unassigned) [Example 671]	–
133	262	CC(C)C[C@H]1C(=O)N2CC[C@H](c3ccccc3)C[C@H]2C(=O)N[C@H](Cc2ccccc2)COc2cnc3ccccc3c2C(=O)N[C@H](C(=O)NCCc2cc(C3CC3)no2)CC(=O)N1C (single isomer, unassigned) [Example 674]	–
–	–	COc1cc(CCNC(=O)[C@@H]2CC(=O)N(C)[C@@H](CC(C)C)C(=O)N3CCCC[C@@H]3C(=O)N[C@H](Cc3ccccc3)COc3ccc4ncc(F)cc4c3C(=O)N2)on1 (single isomer, unassigned) [Example 899]	EC50 (EC50, F508del-CFTR cell surface expression, U2OS cells, 16h compound incubation, geomean of several measurements): 819 nM; Emax (U2OS, in relation to the Emax of the corrector lumacaftor (=100%), U2OS cells, 16h compound incubation, arithmetic mean): 294%
–	–	CCC(=O)CCCCC[C@@H]1NC(=O)[C@H]2CCCCN2C(=O)[C@H]([C@@H](C)CC)NC(=O)[C@H](Cc2cn(OC)c3ccccc23)NC1=O [Apicidin, reference compound]	EC50 (EC50, recombinant U2OS cell line (DiscoveRx) expressing PK-tagged human F508del-CFTR, 16h compound incubation, same conditions as example compounds): > 20000 nM

SMILES	Emax [3] [%]	EC50 [4] [nM]	also measured
COc1cccc(CCNC(=O)[C@@H]2CC(=O)N(C)[C@@H](CC(C)C)C(=O)N(C)[C@@H](CO)C(=O)N[C@H](Cc3ccccc3)COc3ccc4ccccc4c3C(=O)N2)c1 (racemic) [Example 718, (3S,7S,10RS,13R)-13-benzyl-10-(hydroxymethyl)-7-isobutyl-N-(3-methoxyphenethyl)-6,9-dimethyl-1,5,8,11-tetraoxo-1,2,3,4,5,6,7,8,9,10,11,12,13,14-tetradecahydronaphtho[1,2-p][1]oxa[4,7,10,14]tetraazacycloheptadecine-3-carboxamide]	272	–	–
Cc1cc(CCNC(=O)[C@@H]2CC(=O)N(C)[C@@H](CC(C)C)C(=O)N(C)[C@@H](COC(C)(C)C)C(=O)N[C@H](Cc3ccccc3)COc3ccc4ccccc4c3C(=O)N2)on1 (racemic) [Example 719, (3S,7S,10RS,13R)-13-benzyl-10-(tert-butoxymethyl)-7-isobutyl-6,9-dimethyl-N-(2-(3-methylisoxazol-5-yl)ethyl)-1,5,8,11-tetraoxo-1,2,3,4,5,6,7,8,9,10,11,12,13,14-tetradecahydronaphtho[1,2-p][1]oxa[4,7,10,14]tetraazacycloheptadecine-3-carboxamide]	313	124	–
